Reference: article PMC5787524, “Discovery of a FLT3 inhibitor LDD1937 as an anti-leukemic agent for acute myeloid leukemia” (Oncotarget, 2017)

Molecular target: T1, JAK3 (Homo sapiens, UniProt P52333)
T1 sequence (P52333 1-1124): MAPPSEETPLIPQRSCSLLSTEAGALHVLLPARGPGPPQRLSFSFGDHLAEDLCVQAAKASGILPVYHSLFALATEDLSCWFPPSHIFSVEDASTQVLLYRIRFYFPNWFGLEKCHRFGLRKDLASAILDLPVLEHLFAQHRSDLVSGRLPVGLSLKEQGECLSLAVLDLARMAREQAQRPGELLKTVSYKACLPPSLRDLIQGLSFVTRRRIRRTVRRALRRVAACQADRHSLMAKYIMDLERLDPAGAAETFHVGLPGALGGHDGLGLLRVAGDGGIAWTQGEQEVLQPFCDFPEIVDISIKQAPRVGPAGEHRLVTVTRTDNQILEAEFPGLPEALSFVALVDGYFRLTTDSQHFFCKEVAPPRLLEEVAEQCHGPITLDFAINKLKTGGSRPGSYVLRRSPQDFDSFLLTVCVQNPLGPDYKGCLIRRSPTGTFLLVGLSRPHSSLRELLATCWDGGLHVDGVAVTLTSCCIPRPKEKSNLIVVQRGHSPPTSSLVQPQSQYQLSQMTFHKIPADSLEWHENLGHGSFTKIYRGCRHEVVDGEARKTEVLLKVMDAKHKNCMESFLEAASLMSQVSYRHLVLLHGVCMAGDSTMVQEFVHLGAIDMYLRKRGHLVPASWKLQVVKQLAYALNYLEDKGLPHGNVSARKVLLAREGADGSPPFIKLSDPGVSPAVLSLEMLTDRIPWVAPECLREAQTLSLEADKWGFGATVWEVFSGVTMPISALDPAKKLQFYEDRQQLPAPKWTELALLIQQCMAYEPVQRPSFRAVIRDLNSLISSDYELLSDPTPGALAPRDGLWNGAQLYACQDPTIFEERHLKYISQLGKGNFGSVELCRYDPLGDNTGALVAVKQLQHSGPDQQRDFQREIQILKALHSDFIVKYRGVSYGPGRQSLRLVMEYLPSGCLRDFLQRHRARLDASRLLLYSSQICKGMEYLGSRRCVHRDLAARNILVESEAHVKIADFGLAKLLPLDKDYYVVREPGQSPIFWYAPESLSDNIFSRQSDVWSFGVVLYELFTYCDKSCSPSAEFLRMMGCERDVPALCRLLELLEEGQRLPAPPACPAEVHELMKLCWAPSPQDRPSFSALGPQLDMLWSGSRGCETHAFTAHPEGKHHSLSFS
Test: In vitro JAK3 kinase assay (HTRF)
Type: biochemical
Conditions: mean ± S.D.
Description: The inhibition of the FLT3 kinase activity was measured with homogeneous, time-resolved fluorescence (HTRF) assays. Recombinant proteins containing the FLT3 kinase domain were purchased from Carna biosciences (Japan). Optimal enzyme, ATP, and substrate concentrations were established with the HTRF KinEASE kit (Cisbio, France) according to the manufacturer’s instructions. The FLT3 enzymes were mixed with serially diluted compounds and peptide substrates in a kinase reaction buffer (50 mM HEPES (pH 7.0), 500 μM ATP, 0.1 mM sodium orthovanadate, 5 mM MgCl2, 1 mM DTT, 0.01% bovine serum albumin (BSA), and 0.02% NaN3). After the addition of the reagents for detection, the TR-FRET signal was measured with a Victor multilabel reader (Perkin Elmer, Waltham, MA, USA). The IC50 was calculated with nonlinear regression using Prism version 5.01 (GraphPad). JAK2, JAK3, cMET, and RET in vitro kinase assays were also carried out using the HTRF assay kit.

## COC(=O)c1ccc2c(c1)/C(=C1/Nc3ccccc3/C1=N\OCCN1CCNCC1)C(=O)N2.Cl.Cl [LDD1937, methyl (2Z,3E)-2′-oxo-3-((2-(piperazin-1-yl)ethoxy)imino)-[2,3′-biindolinylidene]-5′-carboxylate dihydrochloride]
  IC50: 690 ± 59.9 nM
